Data published in article PMC12250302, “Synthesis, Antimicrobial Activities, and Model of Action of Novel Tetralone Derivatives Containing Aminoguanidinium Moiety” (International Journal of Molecular Sciences, 2025).
≈ marks a conversion by molar mass, not a printed value. Like-named read-outs stand apart in the source and are kept apart here. One block for each molecule: values may come before it.

How the values were obtained:
Test in all cases: MIC and MBC testing, broth microdilution
[1] = tested on: E. coli ATCC 25922; format: cell-based, Escherichia coli
Text: (§1) The minimum inhibitory concentrations (MICs) and minimum bactericidal concentrations (MBCs) of the synthesized compounds effective against ESKAPE strains, S. aureus clinical isolates, and MRSA were investigated by the broth dilution method. Levofloxacin is a broad-spectrum antibacterial agent that is widely used in the treatment of ESKAPE infections. Therefore, levofloxacin was selected as the positive control for the preliminary activity screening. DMSO (0.1%) was selected as the negative control.
(§2) The minimum inhibitory concentration (MIC) of all synthesized compounds was tested by the broth microdilution method. In brief, compounds dissolved in DMSO were diluted twice continuously in a 96-well plate with MH broth. The ESKAPE pathogens (E. coli ATCC 25922, S. aureus ATCC 29213, K. pneumoniae ATCC 700603, A. baumannii ATCC 19606, P. aeruginosa ATCC 27853, and E. faecium ATCC 35667), clinical S. aureus isolates (LMY45, LMY46, LMY47, and LMY48) and methicillin-resistant Staphylococcus aureus (MRSA-1 and MRSA-2) were cultured in MH broth to logarithmic growth phase and then diluted to 1 × 10^6 CFU/mL in MH broth. Subsequently, the diluted bacterial solution was mixed with the diluted compound solution in a 96-well plate and incubated at 37 °C for a duration of 18 h. The MIC of the compounds was recorded as the lowest concentration at which no visible growth was observed. […] Each concentration was replicated thrice.

[2] = tested on: S. aureus ATCC 29213; format: cell-based, Staphylococcus aureus; conditions: S. aureus ATCC 29213; for MIC: 18 h
Text: as §1, §2

[3] = tested on: clinical S. aureus isolate LMY48; format: cell-based, Staphylococcus aureus; conditions: LMY48; for MIC: 18 h
Protocol: (§3) Furthermore, the MBC values of the compounds were detected.
as §2, with “h.” for “h. The MIC of the compounds was recorded as the lowest concentration at which no visible growth was observed.”

[4] = tested on: MRSA-2; format: cell-based, Staphylococcus aureus; conditions: MRSA-2; for MIC: 18 h
Protocol: as §3
as §2, with “h.” for “h. The MIC of the compounds was recorded as the lowest concentration at which no visible growth was observed.”

[5] = tested on: clinical S. aureus isolate LMY45; format: cell-based, Staphylococcus aureus; conditions: LMY45; for MIC: 18 h
Protocol: as §3
as §2, with “h.” for “h. The MIC of the compounds was recorded as the lowest concentration at which no visible growth was observed.”

[6] = tested on: clinical S. aureus isolate LMY47; format: cell-based, Staphylococcus aureus; conditions: LMY47; for MIC: 18 h
Protocol: as §3
as §2, with “h.” for “h. The MIC of the compounds was recorded as the lowest concentration at which no visible growth was observed.”

[7] = tested on: MRSA-1; format: cell-based, Staphylococcus aureus; conditions: MRSA-1; for MIC: 18 h
Protocol: as §3
as §2, with “h.” for “h. The MIC of the compounds was recorded as the lowest concentration at which no visible growth was observed.”

[8] = tested on: clinical S. aureus isolate LMY46; format: cell-based, Staphylococcus aureus; conditions: LMY46; for MIC: 18 h
Protocol: as §3
as §2, with “h.” for “h. The MIC of the compounds was recorded as the lowest concentration at which no visible growth was observed.”

[9] = tested on: P. aeruginosa ATCC 27853; format: cell-based, Pseudomonas aeruginosa; conditions: for MBC: ATCC27853, read-out: MBC
Text: as §1, §2

[10] = tested on: E. faecium ATCC 35667; format: cell-based, Enterococcus faecium; conditions: E. faecium ATCC 35667; for MIC: 18 h
Text: as §1, §2

[11] = tested on: K. pneumoniae ATCC 700603; format: cell-based, Klebsiella pneumoniae
Text: as §1, §2

[12] = tested on: A. baumannii ATCC 19606; format: cell-based, Acinetobacter baumannii
Text: as §1, §2

[13] = Escherichia coli, ATCC25922, 18 h, read-out: MIC
[14] = Escherichia coli, ATCC25922, read-out: MBC
[15] = Staphylococcus aureus, ATCC29213, read-out: MIC
[16] = Staphylococcus aureus, ATCC29213, read-out: MBC
[17] = Staphylococcus aureus, read-out: MIC
[18] = Staphylococcus aureus, read-out: MBC
[19] = Pseudomonas aeruginosa, ATCC27853, 18 h, read-out: MIC
[20] = Enterococcus faecium, ATCC35667, read-out: MIC
[21] = Enterococcus faecium, ATCC35667, read-out: MBC
[22] = Klebsiella pneumoniae, ATCC700603, 18 h, read-out: MIC
[23] = Acinetobacter baumannii, ATCC19606, 18 h, read-out: MIC
[24] = Acinetobacter baumannii, ATCC19606, read-out: MBC

MIC [1, 13]: 32 µg/mL (≈ 83.2 µM)
MIC [2, 15]: 2 µg/mL (≈ 5.2 µM)
MIC [3, 17]: 2 µg/mL (≈ 5.2 µM)
MIC [4, 17]: 2 µg/mL (≈ 5.2 µM)
MIC [5, 17]: 2 µg/mL (≈ 5.2 µM)
MIC [6, 17]: 2 µg/mL (≈ 5.2 µM)
MIC [7, 17]: 4 µg/mL (≈ 10.4 µM)
MIC [8, 17]: 2 µg/mL (≈ 5.2 µM)
MIC [9, 19]: > 32 µg/mL
MIC [10, 20]: 2 µg/mL (≈ 5.2 µM)
MIC [11, 22]: > 32 µg/mL
MIC [12, 23]: 32 µg/mL (≈ 83.2 µM)
Molecule: [H]/N=C(\N)NN=C1CCCc2cc(OCc3cccc(-c4ccccc4)c3)ccc21 [Compound 1W, (E)-2-(6-([1,1’-biphenyl]-3-ylmethoxy)-3,4-dihydronaphthalen-1(2H)-ylidene)hydrazine-1-carboximidamide]
MBC [1, 14]: 32 µg/mL (≈ 83.2 µM)
MBC [2, 16]: 16 µg/mL (≈ 41.6 µM)
MBC [3, 18]: 4 µg/mL (≈ 10.4 µM)
MBC [4, 18]: 4 µg/mL (≈ 10.4 µM)
MBC [5, 18]: 8 µg/mL (≈ 20.8 µM)
MBC [6, 18]: 8 µg/mL (≈ 20.8 µM)
MBC [7, 18]: 32 µg/mL (≈ 83.2 µM)
MBC [8, 18]: 8 µg/mL (≈ 20.8 µM)
MBC [10, 21]: 16 µg/mL (≈ 41.6 µM)
MBC [12, 24]: 32 µg/mL (≈ 83.2 µM)

MIC [1, 13]: 4 µg/mL (≈ 13.2 µM)
MIC [2, 15]: 1 µg/mL (≈ 3.31 µM)
MIC [3, 17]: 4 µg/mL (≈ 13.2 µM)
MIC [4, 17]: 2 µg/mL (≈ 6.61 µM)
MIC [5, 17]: 8 µg/mL (≈ 26.5 µM)
MIC [6, 17]: 2 µg/mL (≈ 6.61 µM)
MIC [7, 17]: 4 µg/mL (≈ 13.2 µM)
MIC [8, 17]: 8 µg/mL (≈ 26.5 µM)
MIC [9, 19]: 8 µg/mL (≈ 26.5 µM)
MIC [10, 20]: 2 µg/mL (≈ 6.61 µM)
MIC [11, 22]: 8 µg/mL (≈ 26.5 µM)
MIC [12, 23]: 4 µg/mL (≈ 13.2 µM)
Molecule: [H]/N=C(\N)NN=C1CCCc2cc(OCCCCCC)ccc21 [Compound 2C, (E)-2-(6-(hexyloxy)-3,4-dihydronaphthalen-1(2H)-ylidene)hydrazine-1-carboximidamide]
MBC [1, 14]: 4 µg/mL (≈ 13.2 µM)
MBC [2, 16]: 8 µg/mL (≈ 26.5 µM)
MBC [3, 18]: 32 µg/mL (≈ 106 µM)
MBC [4, 18]: 4 µg/mL (≈ 13.2 µM)
MBC [5, 18]: 32 µg/mL (≈ 106 µM)
MBC [6, 18]: 8 µg/mL (≈ 26.5 µM)
MBC [7, 18]: 16 µg/mL (≈ 52.9 µM)
MBC [8, 18]: 16 µg/mL (≈ 52.9 µM)
MBC ([9]; Pseudomonas aeruginosa): 16 µg/mL (≈ 52.9 µM)
MBC [10, 21]: 8 µg/mL (≈ 26.5 µM)
MBC ([11]; Klebsiella pneumoniae, ATCC700603, read-out: MBC): 8 µg/mL (≈ 26.5 µM)
MBC [12, 24]: 4 µg/mL (≈ 13.2 µM)

Molecule: (E)-2-(6-((3,4-dichlorobenzyl)oxy)-3,4-dihydro-1(2H)-naphthalenylidene)hydrazine-1-carboxamide [Compound 1P]
MBC [1]: 16 µg/mL
MIC ([1]; 18 h): 8 µg/mL
MBC [2]: 8 µg/mL
MIC [2]: 2 µg/mL
MBC [3]: ≤ 1 µg/mL
MIC [3]: ≤ 1 µg/mL
MBC [4]: 4 µg/mL
MIC [4]: 2 µg/mL
MBC [5]: 4 µg/mL
MIC [5]: 2 µg/mL
MBC [6]: 4 µg/mL
MIC [6]: 2 µg/mL
MBC [7]: 16 µg/mL
MIC [7]: 1 µg/mL
MBC [8]: 8 µg/mL
MIC [8]: 2 µg/mL
MIC ([9]; 18 h): >32/- µg/mL
MBC [10]: 8 µg/mL
MIC [10]: 2 µg/mL
MBC [11]: 32 µg/mL
MIC ([11]; 18 h): 32 µg/mL
MBC [12]: 16 µg/mL
MIC ([12]; 18 h): 8 µg/mL

MIC [1, 13]: 4 µg/mL (≈ 12.1 µM)
MIC [2, 15]: 2 µg/mL (≈ 6.05 µM)
MIC [3, 17]: 1 µg/mL (≈ 3.03 µM)
MIC [4, 17]: 1 µg/mL (≈ 3.03 µM)
MIC [5, 17]: 1 µg/mL (≈ 3.03 µM)
MIC [6, 17]: 2 µg/mL (≈ 6.05 µM)
MIC [7, 17]: 1 µg/mL (≈ 3.03 µM)
MIC [8, 17]: 1 µg/mL (≈ 3.03 µM)
MIC [9, 19]: 32 µg/mL (≈ 96.8 µM)
MIC [10, 20]: 2 µg/mL (≈ 6.05 µM)
MIC [11, 22]: > 32 µg/mL
MIC [12, 23]: 8 µg/mL (≈ 24.2 µM)
Molecule: [H]/N=C(\N)NN=C1CCCc2cc(OCCCCCCCC)ccc21 [Compound 2E, (E)-2-(6-(octyloxy)-3,4-dihydronaphthalen-1(2H)-ylidene)hydrazine-1-carboximidamide]
MBC [1, 14]: 16 µg/mL (≈ 48.4 µM)
MBC [2, 16]: 2 µg/mL (≈ 6.05 µM)
MBC [3, 18]: 2 µg/mL (≈ 6.05 µM)
MBC [4, 18]: 2 µg/mL (≈ 6.05 µM)
MBC [5, 18]: 4 µg/mL (≈ 12.1 µM)
MBC [6, 18]: 4 µg/mL (≈ 12.1 µM)
MBC [7, 18]: 8 µg/mL (≈ 24.2 µM)
MBC [8, 18]: 4 µg/mL (≈ 12.1 µM)
MBC ([9]; Pseudomonas aeruginosa): > 32 µg/mL
MBC [10, 21]: 4 µg/mL (≈ 12.1 µM)
MBC [12, 24]: 32 µg/mL (≈ 96.8 µM)
